Test results published in BigSolDB 2.1.

Clc1cccnc1Cl
solubility (mole fraction)
Conditions	in 1,4-dioxane	in acetonitrile	in cyclohexane	in dichloromethane	in ethanol	in ethyl acetate	in isobutanol	in isopropanol
278.15 K	–	0.061	–	0.213	0.0314	0.166	0.0394	0.032
283.15 K	–	0.0806	0.0334	0.238	0.0418	0.194	0.0507	–
288.15 K	0.241	0.108	0.045	0.27	0.0558	0.223	0.0654	–
293.15 K	0.285	0.137	0.061	0.304	0.071	0.259	0.0836	–
298.15 K	0.332	0.178	0.0796	0.346	0.0902	0.302	0.108	–
303.15 K	0.382	0.23	0.106	0.386	0.115	0.349	0.14	–
308.15 K	0.442	0.295	0.145	0.432	0.145	0.398	0.18	–
313.15 K	0.514	0.389	0.187	0.489	0.188	0.46	0.232	–
